The values that follow are results of earlier work, collected in US8338628B2, “Method of synthesizing alkylated bile acid derivatives” (City of Hope, priority 2007, dated 2012).

Structures are written as SMILES.

The conditions of series [1]: background statement.
The test system of a further series is FXR. The conditions noted are these: in vivo; recent studies.
The target in series [2] is T1, farnesoid X receptor (FXR) (Homo sapiens, UniProt Q96RI1).
T1 sequence (Q96RI1 1-486): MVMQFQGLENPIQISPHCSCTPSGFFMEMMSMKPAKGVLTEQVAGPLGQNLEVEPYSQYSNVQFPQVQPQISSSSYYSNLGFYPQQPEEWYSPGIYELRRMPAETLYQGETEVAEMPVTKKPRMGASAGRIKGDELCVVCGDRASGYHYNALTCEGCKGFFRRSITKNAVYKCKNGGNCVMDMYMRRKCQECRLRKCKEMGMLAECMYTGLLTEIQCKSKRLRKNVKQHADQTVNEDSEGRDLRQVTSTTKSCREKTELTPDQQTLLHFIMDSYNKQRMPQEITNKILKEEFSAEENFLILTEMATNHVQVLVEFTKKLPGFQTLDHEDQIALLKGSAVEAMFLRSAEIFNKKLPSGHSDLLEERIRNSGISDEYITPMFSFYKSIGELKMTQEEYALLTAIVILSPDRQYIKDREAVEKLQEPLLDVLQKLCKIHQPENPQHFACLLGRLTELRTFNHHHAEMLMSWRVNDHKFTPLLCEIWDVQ
The following applies: background statement.

On to `CC[C@H]1[C@@H](O)[C@@H]2[C@H](CC[C@]3(C)[C@@H]([C@H](C)CCC(=O)O)CC[C@@H]23)[C@@]2(C)CC[C@@H](O)C[C@@H]12` [Compound 6-ECDCA, 3α,7α-Dihydroxy-6α-ethyl-5β-cholan-24-oic acid], for which the “pharmacokinetic properties (in words)” value in series [1] is “improved pharmacokinetic properties relative to GW4064”.

For `CC(C)c1onc(-c2c(Cl)cccc2Cl)c1COc1ccc(/C=C/c2cccc(C(=O)O)c2)c(Cl)c1` [GW4064], in the series with FXR, the HDL-cholesterol result is “increases HDL-cholesterol” and the plasma triglycerides result was “reduces plasma triglycerides”. Also, in series [1], the “pharmacokinetic properties (in words)” value was “very poor pharmacokinetic properties”.

For `C[C@H](CCC(=O)O)[C@H]1CC[C@H]2[C@@H]3[C@H](O)C[C@@H]4C[C@H](O)CC[C@]4(C)[C@H]3C[C@H](O)[C@]12C` [cholic acid], the “FXR activation (in words)” value in series [2] was “activate FXR”.
